Experimental data reported in US4091097A, “Treatment of elevated histamine and uric acid levels” (Zaidan Hojin Biseibutsu Kagaku Kenkyu Kai, priority 1973, dated 1978).
Like-named read-outs stand apart in the source and are kept apart here.

Key:
[1] = target: T1, histidine decarboxylase (Rattus norvegicus, UniProt P16453); assay: Inhibition of Histidine Decarboxylase (14C-histamine formation); type: biochemical, fetal rats
T1 construct: a crude enzyme preparation obtained from fetal rats; from tissue
T1 sequence (P16453 1-656): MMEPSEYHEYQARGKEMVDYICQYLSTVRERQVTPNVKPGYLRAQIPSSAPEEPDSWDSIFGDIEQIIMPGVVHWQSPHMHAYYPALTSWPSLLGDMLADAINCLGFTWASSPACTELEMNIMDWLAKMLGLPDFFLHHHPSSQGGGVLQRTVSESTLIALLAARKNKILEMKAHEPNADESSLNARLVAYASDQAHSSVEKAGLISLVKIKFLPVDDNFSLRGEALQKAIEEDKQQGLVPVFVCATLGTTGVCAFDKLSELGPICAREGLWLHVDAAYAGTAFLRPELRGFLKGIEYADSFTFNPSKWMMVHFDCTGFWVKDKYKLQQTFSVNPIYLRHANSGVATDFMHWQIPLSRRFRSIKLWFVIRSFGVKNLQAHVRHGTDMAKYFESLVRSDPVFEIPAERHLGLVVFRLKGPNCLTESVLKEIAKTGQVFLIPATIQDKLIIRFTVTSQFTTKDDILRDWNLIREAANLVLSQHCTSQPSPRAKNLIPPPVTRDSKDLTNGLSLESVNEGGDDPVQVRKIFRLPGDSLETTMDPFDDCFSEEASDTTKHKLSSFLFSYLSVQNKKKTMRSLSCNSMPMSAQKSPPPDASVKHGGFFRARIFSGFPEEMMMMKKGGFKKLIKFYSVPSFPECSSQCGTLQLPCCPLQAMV
Protocol: After two hours of incubation at 37° C., the histamine 2-^14 C formed was collected on an ion exchange resin ("Amberlite" CG-50, ammonia type) from which, after washing with water, the histamine was liberated in 1N aqueous ammonia solution and radioactivity was measured.

[2] = test system: mice and rats; conditions: in vivo
Protocol: The acute toxicity was determined for oral and intraperitoneal administration with mice and rats (6 mice and 2 rats in one dose group), and the LD50 value, i.e., the single application dose killing 50% of the test animals, was estimated.

[3] = test system: pyrexia induced by TTG No. 2; assay: Antipyretic Activity in Pyrexia-Induced Rabbits; type: in vivo, Japanese rabbits; conditions: 200 mg./kg. oral
Protocol: Common white male Japanese rabbits, 2.0 - 3.0 kg. body weight, were injected through the ear vein with 20 μg./kg. of a pyrexia inducer TTG No. 2, purified polysaccharide preparation obtained from Pseudomonas aeruginosa (marketed by Fujisawa Pharmaceutical Company, Japan), and the body temperature was monitored with a rectal thermister-type thermometer. Three hours prior to the TTG injection four rabbits in each experimental section orally received the test drug in the dose of 200 mg./kg. One group received aspirin in a dose of 100 mg./kg and a control group no drug.

[4] = test system: acetic acid-induced stretching movements; assay: Analgesic Activity in mice (acetic acid stretching); type: in vivo, mice (DDY Strain); conditions: control (no drug) 53
Protocol: Male mice of the DDY Strain having mean body weight of 20 g. were divided to the groups of 10 animals each, to which compounds of this invention or aminopyrine in saline solution were administered intraperitoneally (i.p.). The dosage was 200, 50 or 12.5 mg./kg. Then 30 minutes later, 0.2 ml. per 20 g. body weight of 0.7% acetic acid in saline was injected intraperitoneally and the number of characteristic stretching movements counted for 20 minute period and compared with a control group receiving no analgesic.

[5] = pH 6.8, two hours at 37° C., read-out: Histidine Decarboxylase Inhibition ID50
[6] = 2 hrs. after TTG, control (no drug) 1.2
[7] = 4 hrs. after TTG, control (no drug) 1.6

SMILES | IC50 [1, 5] | IC50 [1] | comparative toxicity [2] | Antipyretic Activity: Elevation of Body Temperature [3, 6] | Antipyretic Activity: Elevation of Body Temperature [3, 7] | Analgesic Activity: Stretching Count (20 minutes) ([4]; 50 mg./kg. i.p.) | Analgesic Activity: Stretching Count (20 minutes) ([4]; 200 mg./kg. i.p.)
Cc1ccc(C(=O)Nc2cc(Br)c(O)c(Br)c2)c(O)c1 [Compound 22] |  | 800 nM | comparatively more toxic than the others |  |  |  | 
O=C(Nc1cc(Br)c(O)c(C(=O)O)c1)c1ccccc1O [Compound 6] | 260 nM |  | comparatively more toxic than the others | 0.5 °C | 0.5 °C | 25 | 12
CCCC(=O)Oc1ccc(C(=O)Nc2cc(Cl)c(N)c(C(=O)OC)c2)c(OC(=O)CCC)c1 [Compound 42] | 510 nM |  | comparatively more toxic than the others |  |  |  | 
CCOc1c(Cl)cc(NC(=O)c2ccc(O)cc2O)cc1Br [Compound 15] | 310 nM |  | comparatively more toxic than the others |  |  |  | 
O=C(Nc1cc(Cl)c(O)c(Cl)c1)c1ccc(O)cc1O [Compound 4] | 28 nM |  |  | 0.5 °C | 0.4 °C | 13 | 6
O=C(Nc1ccc(O)c(Br)c1)c1ccc(O)cc1O [Compound 5] | 30 nM |  | comparatively more toxic than the others | 0.5 °C | 0.4 °C | 14 | 6
Cc1c(N(C)C)c(=O)n(-c2ccccc2)n1C [Aminopyrine, reference compound] |  |  |  | 0.4 °C | 0.3 °C | 8 | 2
CCOC(=O)c1cc(NC(=O)c2ccccc2OC(C)=O)cc(Cl)c1O [Compound 44] | 230 nM |  |  |  |  |  | 
Cc1ccc(C(=O)Nc2cc(Cl)c(O)c(Cl)c2)c(O)c1 [Compound 8] |  | 96 nM |  | 0.6 °C | 0.5 °C | 40 | 21
Nc1c(Cl)cc(NC(=O)c2ccccc2O)cc1Cl [Compound 24] | 140 nM |  | comparatively more toxic than the others |  |  |  | 
O=C(Nc1cc(Cl)c(O)c(Cl)c1)c1cc(F)ccc1O [Compound 10] | 230 nM |  |  | 0.6 °C | 0.5 °C | 35 | 20
Cc1cc(NC(=O)c2ccccc2O)cc(Cl)c1O [Compound 12] | 120 nM |  |  |  |  |  | 
CC(=O)Oc1ccccc1C(=O)Nc1cc(Cl)c(OC(C)=O)c(Cl)c1 [Compound 30] | 24 nM |  |  | 0.5 °C | 0.5 °C | 14 | 4
O=C(Nc1ccc(O)c(Cl)c1)c1ccccc1O [Compound 2] | 2500 nM |  |  | 0.6 °C | 0.5 °C | 30 | 12
O=C(Nc1cc(Br)c(O)c(Br)c1)c1ccccc1O [Compound 3] |  | 23 nM | comparatively more toxic than the others | 0.6 °C | 0.5 °C | 17 | 6
CCC(=O)Oc1ccc(OC(=O)CC)c(C(=O)Nc2cc(Cl)c(N)c(C(=O)OC)c2)c1 [Compound 43] | 530 nM |  | comparatively more toxic than the others |  |  |  | 
Cc1cc(NC(=O)c2ccc(Br)cc2O)cc(C(=O)O)c1O [Compound 19] | 330 nM |  | comparatively more toxic than the others |  |  |  | 
O=C(Nc1ccc(O)c(Cl)c1)c1cc(Br)ccc1O [Compound 20] |  | 580 nM | comparatively more toxic than the others |  |  |  | 
O=C(Nc1cc(Cl)c(O)c(C(=O)O)c1)c1ccccc1O [Compound 7] | 110 nM |  |  | 0.6 °C | 0.5 °C | 40 | 14
O=C(Nc1cc(Cl)c(O)c(Cl)c1)c1ccc(F)cc1O [Compound 9] | 89 nM |  |  | 0.6 °C | 0.6 °C | 35 | 20
COc1c(Cl)cc(NC(=O)c2ccccc2O)cc1Cl [Compound 11] | 210 nM |  |  |  |  |  | 

Second part, led by results:

IC50 [1, 5] | SMILES | IC50 [1] | comparative toxicity [2] | Antipyretic Activity: Elevation of Body Temperature [3, 6] | Antipyretic Activity: Elevation of Body Temperature [3, 7] | Analgesic Activity: Stretching Count (20 minutes) ([4]; 50 mg./kg. i.p.) | Analgesic Activity: Stretching Count (20 minutes) ([4]; 200 mg./kg. i.p.)
310 nM | CC(=O)Oc1ccc(OC(C)=O)c(C(=O)Nc2cc(Cl)c(O)c(Cl)c2)c1 [Compound 40] |  |  |  |  |  | 
390 nM | CC(=O)Oc1cc(O)ccc1C(=O)Nc1cc(C)c(OC(C)=O)c(Cl)c1 [Compound 34] |  |  |  |  |  | 
200 nM | CCC(=O)Oc1ccccc1C(=O)Nc1cc(Cl)c(N)c(Cl)c1 [Compound 38] |  |  |  |  |  | 
710 nM | CCc1ccc(O)c(C(=O)Nc2cc(Br)c(O)c(CC)c2)c1 [Compound 18] |  |  |  |  |  | 
600 nM | CC(=O)Oc1ccc(O)cc1C(=O)Nc1cc(C)c(OC(C)=O)c(Cl)c1 [Compound 35] |  |  |  |  |  | 
490 nM | CCC(=O)Oc1ccc(NC(=O)c2ccc(O)cc2OC(=O)CC)cc1Br [Compound 36] |  |  |  |  |  | 
790 nM | CCc1cc(NC(=O)c2ccc(C)cc2O)cc(C(=O)OC)c1O [Compound 28] |  |  |  |  |  | 
460 nM | CCc1ccc(C(=O)Nc2cc(Br)c(O)c(CC)c2)c(O)c1 [Compound 17] |  |  |  |  |  | 
420 nM | CC(=O)Oc1cc(F)ccc1C(=O)Nc1cc(C)c(OC(C)=O)c(Br)c1 [Compound 37] |  |  |  |  |  | 
190 nM | CC(=O)Oc1ccc(C(=O)Nc2cc(Cl)c(O)c(Cl)c2)c(OC(C)=O)c1 [Compound 39] |  |  |  |  |  | 
690 nM | COc1c(F)cc(NC(=O)c2cc(Cl)ccc2O)cc1Cl [Compound 26] |  |  |  |  |  | 
320 nM | CCOC(=O)c1cc(NC(=O)c2ccccc2OC(=O)c2ccccc2)cc(Cl)c1O [Compound 41] |  |  |  |  |  | 
980 nM | CCc1cc(NC(=O)c2cc(C)ccc2O)cc(C(=O)OC)c1O [Compound 29] |  |  |  |  |  | 
17 nM | CC(C)CC(=O)Oc1ccccc1C(=O)Nc1cc(Cl)c(OC(=O)CC(C)C)c(Cl)c1 [Compound 31] |  |  | 0.6 °C | 0.5 °C | 13 | 4
810 nM | CCc1cc(NC(=O)c2ccc(O)cc2O)cc(F)c1OC [Compound 16] |  |  |  |  |  | 
230 nM | O=C(Nc1cc(F)c(O)c(Cl)c1)c1ccccc1O [Compound 13] |  |  |  |  |  | 
500 nM | O=C(Nc1cc(Cl)c(O)c(C(=O)O)c1)c1cc(O)ccc1O [Compound 23] |  |  |  |  |  | 
500 nM | CCOc1ccc(NC(=O)c2ccc(F)cc2O)cc1Cl [Compound 21] |  |  |  |  |  | 
